# According to patent US20030138429A1, “Compositions and methods for inhibiting metastasis” (priority 2001, published 2003):
# Test system: 1-LN cells
# Test: MMP-9 mRNA levels in 1-LN cells by RT-PCR
# Type: cell-based, human
# Conditions: for MMP-9 EXPRESSION mRNA: Yes/No; for Relative MMP-9 mRNA levels (ratio MMP-9 mRNA/GAPDH mRNA): glycoform 0.1 μM, 24 h, versus serum-free medium alone, in words
# Protocol: RNA Isolation—To determine changes in MMP-9 mRNA induced by Pg, 1-LN cells were grown in 48 well culture plates (1.7×10^6 cells/well) and incubated with each individual Pg 2 glycoform for 24 h at 37° C. Cell monolayers were then rinsed twice in serum-free RPMI 1640 and total RNA extracted by a single-step method, using RNeach Mini kit (Qiagen, Chatsworth, Calif.), according to the manufacturer's instructions.
# Measurement of MMP-9 mRNA Levels by Reverse Transcription-PCR (RT-PCR)—Total RNA was reverse transcribed with 1 μg of RNA in a 20 μl reaction mixture, using M-MLV reverse transcriptase (200 U) and oligo d(T) as primer for 1 h at 42° C. The resulting cDNA (5 μl) was used as a template and a […] segment of the MMP-9 cDNA was amplified, using a 24-mer upstream primer (5′-[…]-3′), identical to positions 2079-2102 and a 29-mer downstream primer (5′-[…]-3′) complimentary to positions 2270-2298 of the human MMP-9 mRNA [45]. A 600-bp segment of the glyceraldehyde phosphate dehydrogenase (GAPDH, constitutive internal control) cDNA was co-amplified, using a 24-mer upstream primer (5′-[…]), identical to positions 212-235 and a 24-mer downstream primer (5′-[…]-3′), complimentary to positions 786-809 of the human GAPDH mRNA [46]. Amplification was carried out in a Techne Thermal Cycler PHC-3 for 28 cycles (one cycle=94° C. for 45 s, 60° C. for 45 s, and 72° C. for 45 s). PCR products were analyzed on a 1.2% agarose-ethidium bromide gel. The gels were photographed and the intensity of the individual MMP-9 and GAPDH mRNA bands measured by laser densitometric scanning, using a Molecular Dynamics Personal Densitometer. Changes in MMP-9 mRNA levels were expressed as a relative ratio of MMP-9 mRNA/GAPDH mRNA band intensities.
Substance,MMP-9 EXPRESSION mRNA,Relative MMP-9 mRNA levels (ratio MMP-9 mRNA/GAPDH mRNA)
Pg 2α: glycoform of human plasminogen type 2 purified from plasma; 1.3 mol sialic acid/mol Pg,No,did not show a significant change
Pg 2β: glycoform of human plasminogen type 2 purified from plasma; 2.2 mol sialic acid/mol Pg,No,did not show a significant change
Pg 2γ: glycoform of human plasminogen type 2 purified from plasma; 2.95 mol sialic acid/mol Pg,No,did not show a significant change
Pg 2δ: glycoform of human plasminogen type 2 purified from plasma; 5.77 mol sialic acid/mol Pg,No,did not show a significant change
Pg 2ε: glycoform of human plasminogen type 2 purified from plasma; 5.34 mol sialic acid/mol Pg,Yes,significant increase
